The text below walks through data of PubChem BioAssay (NCI).

Some test systems named below: UO-31 renal; HOP-92 NSCLC; NCI/ADR-RES ovarian; CCRF-CEM leukemia; HOP-62 NSCLC; OVCAR-3 ovarian; M14 melanoma; SK-MEL-28 melanoma; RXF 393 renal; TK-10 renal.
What all share (experiment): NCI anticancer screen, dose series, 48 h

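Five compound concentrations were applied to cells in 96-well plates for 48 hours; endpoints were derived by simple linear interpolation of the resulting dose-response curve. At the GI50, growth is halved. At the TGI there is no net growth.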

Turning to `COc1cc(C2C3=C(COC3=O)N(CCO)c3cc4c(cc32)OCCO4)cc(OC)c1OC` (configuration not stated), the GI50 was 1.82 µM with UO-31 renal; 0.111 µM with HOP-92 NSCLC; 6.75 µM with NCI/ADR-RES ovarian; 0.176 µM in the experiment on CCRF-CEM leukemia; 0.465 µM with HOP-62 NSCLC; 0.135 µM in the experiment on OVCAR-3 ovarian. The GI50 in the experiment with M14 melanoma was 0.181 µM; in the experiment on SK-MEL-28 melanoma, > 50 µM. Further, the TGI is > 50 µM in the experiment on UO-31 renal; > 50 µM in the experiment on HOP-92 NSCLC; > 40.7 µM with NCI/ADR-RES ovarian; > 50 µM in the experiment with CCRF-CEM leukemia; > 50 µM in the experiment on HOP-62 NSCLC; 0.315 µM with OVCAR-3 ovarian. Further, the TGI with SK-MEL-28 melanoma is > 50 µM.

With `CN(C)CCCn1c(=O)c2ccccc2c2cnc3[nH]ccc3c21`, the GI50 in the experiment on HOP-92 NSCLC was 1.8 µM; in the experiment on NCI/ADR-RES ovarian it was 1.25 µM; in the experiment with CCRF-CEM leukemia, 1.53 µM; in the experiment on HOP-62 NSCLC, 1.49 µM; in the experiment with OVCAR-3 ovarian, 2.4 µM; in the experiment with M14 melanoma, 1.83 µM. The GI50 with RXF 393 renal is 1.4 µM; with SK-MEL-28 melanoma, 2.23 µM. Besides, the TGI in the experiment with HOP-92 NSCLC turned out to be 8.16 µM; with NCI/ADR-RES ovarian, 6.24 µM; in the experiment on CCRF-CEM leukemia it was 8.44 µM; in the experiment on HOP-62 NSCLC, 5.72 µM; with OVCAR-3 ovarian it was 6.35 µM; with M14 melanoma it was 4.44 µM. Besides, the TGI in the experiment with RXF 393 renal amounted to 3.99 µM; in the experiment on SK-MEL-28 melanoma, 5.18 µM.

Consider `N#CC(C(=O)CCCC(=O)Nc1ccc(Cl)cc1Cl)c1ccccc1` (configuration not stated), for which the TGI in the experiment with UO-31 renal, in the experiment with HOP-92 NSCLC, in the experiment on TK-10 renal, in the experiment with CCRF-CEM leukemia, in the experiment with HOP-62 NSCLC and in the experiment with OVCAR-3 ovarian was > 100 µM throughout. Further, the TGI with M14 melanoma, in the experiment with RXF 393 renal and with SK-MEL-28 melanoma was > 100 µM in each case.

On to `CCOC(=O)C(Cc1ccc(N(CCCl)CCCl)cc1)NC(=O)C(Cc1ccccc1)NC=O` (configuration not stated), for which the TGI with UO-31 renal came to 0.273 µM; with HOP-92 NSCLC, 0.419 µM; in the experiment with TK-10 renal, 0.275 µM; in the experiment with NCI/ADR-RES ovarian it was 0.656 µM; in the experiment with CCRF-CEM leukemia, 0.241 µM; in the experiment with HOP-62 NSCLC it was 0.388 µM. The results for the TGI with OVCAR-3 ovarian, with M14 melanoma and in the experiment with RXF 393 renal were 0.29 µM, 0.31 µM and 0.226 µM, respectively.

In the case of `CC(C)c1cccc(C(C)C)c1N1C(=O)C(=O)C(c2nc3ccccc3o2)C(=O)C1=O`, the TGI with UO-31 renal, in the experiment on HOP-92 NSCLC, in the experiment with TK-10 renal, in the experiment with CCRF-CEM leukemia, with HOP-62 NSCLC and in the experiment on OVCAR-3 ovarian was > 100 µM each time. Further, the TGI in the experiment on M14 melanoma, with RXF 393 renal and in the experiment on SK-MEL-28 melanoma was > 100 µM throughout.

`Cc1c(C(=O)O)n(C)c(=O)n(C)c1=O`: the TGI in the experiment with UO-31 renal, in the experiment with HOP-92 NSCLC, in the experiment on TK-10 renal, in the experiment with CCRF-CEM leukemia, in the experiment on HOP-62 NSCLC and in the experiment on OVCAR-3 ovarian was > 100 µM each time. Besides, the TGI in the experiment with M14 melanoma, in the experiment with RXF 393 renal and in the experiment on SK-MEL-28 melanoma was > 100 µM in each case.

As for `CCCCCCSSC(=S)N(CC)CC`, the GI50 is 18.1 µM in the experiment on UO-31 renal; 32.4 µM in the experiment on HOP-92 NSCLC; 25.8 µM in the experiment on TK-10 renal; 28.1 µM in the experiment on NCI/ADR-RES ovarian; 34.6 µM in the experiment on HOP-62 NSCLC; 17.8 µM in the experiment with OVCAR-3 ovarian. Moreover, the GI50 was 19.2 µM in the experiment on M14 melanoma, 17.1 µM in the experiment on RXF 393 renal and 25 µM with SK-MEL-28 melanoma. In addition, the TGI in the experiment on UO-31 renal was 34.9 µM; in the experiment on HOP-92 NSCLC it was > 100 µM; in the experiment with TK-10 renal, 56.7 µM; with NCI/ADR-RES ovarian it was 96.5 µM; in the experiment with HOP-62 NSCLC, > 100 µM; with OVCAR-3 ovarian it was 34.3 µM. For the same compound, the values for the TGI with M14 melanoma, in the experiment on RXF 393 renal and with SK-MEL-28 melanoma were 47.6 µM, 32.9 µM and 61.4 µM, respectively.

With `Cc1cc(N(CCOS(C)(=O)=O)CCOS(C)(=O)=O)ccc1C(=O)O`, the GI50 is > 100 µM with UO-31 renal; 37.1 µM in the experiment on HOP-92 NSCLC; > 100 µM with TK-10 renal; > 100 µM in the experiment with NCI/ADR-RES ovarian; 67.4 µM in the experiment with CCRF-CEM leukemia; > 100 µM in the experiment with HOP-62 NSCLC. The GI50 in the experiment with OVCAR-3 ovarian, in the experiment with M14 melanoma and in the experiment on SK-MEL-28 melanoma was > 100 µM each time. In addition, the TGI in the experiment on UO-31 renal, in the experiment with HOP-92 NSCLC, with TK-10 renal, with NCI/ADR-RES ovarian, in the experiment on CCRF-CEM leukemia and in the experiment with HOP-62 NSCLC was > 100 µM throughout. For the same compound, the TGI with OVCAR-3 ovarian, with M14 melanoma and in the experiment with SK-MEL-28 melanoma was > 100 µM in each case.

For `c1ccc(OCCC[P+](c2ccccc2)(c2ccccc2)c2ccccc2)cc1`, the GI50 is 13.9 µM in the experiment on UO-31 renal; > 100 µM with NCI/ADR-RES ovarian; 1.85 µM in the experiment on CCRF-CEM leukemia; 4.55 µM with HOP-62 NSCLC; 1.12 µM with OVCAR-3 ovarian; 2.53 µM in the experiment on M14 melanoma. The GI50 with SK-MEL-28 melanoma is 1.09 µM. The TGI in the experiment with UO-31 renal was 36.6 µM; with NCI/ADR-RES ovarian it was > 100 µM; in the experiment on CCRF-CEM leukemia, 18.1 µM; in the experiment with HOP-62 NSCLC it was 42.8 µM; in the experiment on OVCAR-3 ovarian, 19.4 µM; in the experiment with M14 melanoma it was 18.1 µM. In addition, in the experiment with SK-MEL-28 melanoma, the TGI was 13.4 µM.

For the compound `O=C(NNc1ccc(Cl)cc1)C1CCC(CNS(=O)(=O)c2ccccc2Cl)CC1` (configuration not stated), the GI50 in the experiment with UO-31 renal is 56.2 µM; with HOP-92 NSCLC, 17.3 µM; with TK-10 renal, 0.453 µM; in the experiment on NCI/ADR-RES ovarian, 15.5 µM; in the experiment with CCRF-CEM leukemia it was 39.2 µM; in the experiment with OVCAR-3 ovarian, 8.68 µM. Moreover, the figures for the GI50 in the experiment with M14 melanoma and in the experiment with RXF 393 renal were 2.89 µM and 24.5 µM, respectively. For the same compound, the TGI in the experiment with UO-31 renal is > 100 µM; in the experiment on HOP-92 NSCLC, > 100 µM; in the experiment on TK-10 renal it was 6.68 µM; in the experiment with NCI/ADR-RES ovarian, 50.7 µM; in the experiment on CCRF-CEM leukemia, > 100 µM; with OVCAR-3 ovarian, 39.8 µM. In addition, the TGI in the experiment on M14 melanoma is 10.7 µM; in the experiment with RXF 393 renal, 65.7 µM.

Turning to `COC1=CC(C2c3cc4c(cc3[C@@H](Nc3ccc(F)cc3)C3COC(=O)[C@H]23)OCO4)=CC(=O)C1=O` (some centres not stated), the TGI with UO-31 renal is 30.2 µM; in the experiment with HOP-92 NSCLC, 31.7 µM; with TK-10 renal, > 63 µM; in the experiment with CCRF-CEM leukemia it was > 29 µM; with HOP-62 NSCLC, 5.9 µM; in the experiment with OVCAR-3 ovarian, > 66.5 µM. Further, the figures for the TGI in the experiment on M14 melanoma, with RXF 393 renal and with SK-MEL-28 melanoma were 36.3 µM, > 100 µM and 45.8 µM, respectively.
